# From PMC4634205 (Cancer research, 2015)
# Entries after “also recorded” stand apart in the source; their conditions may differ. Where a name gives a salt, the structure may show the parent alone. Read-outs that look alike come from different tables or passages of the source.
# Experiments:
# CYP3A4 [1] = tested on: CYP3A4
# [2] = Vemurafenib pharmacokinetics in huPXR/huCAR/huCYP3A4/3A7 mice; assay type: in vivo, mouse; details: for AUC: AUCall of vemurafenib
# Cyp2b = test: Western blot of hepatic microsomal Cyp2b; assay type: in vivo, mouse; details: huPXR/huCAR/huCYP3A4/3A7 mice
# [3] = assay type: in vivo, mouse
# SLCO1B1 = details: cited from earlier work
# [4] = tested on: OH-vemurafenib formation in pooled HLM; test: Inhibition of OH-vemurafenib formation in pooled HLM by CYP inhibitors; assay type: in vitro ADME, human; details: pooled HLM 0.2 mg/mL, 60 μM vemurafenib, 10 min; 1 μM ketoconazole, 2 μM sulfaphenazole
# Abcg2 = test: TaqMan RT-PCR of small intestinal Abcg2 mRNA; assay type: in vivo, mouse; details: huPXR/huCAR/huCYP3A4/3A7 mice treated with RIF
# Abcb1b = test: TaqMan RT-PCR of small intestinal Abcb1b mRNA; assay type: in vivo, mouse
# Abcb1a = test: TaqMan RT-PCR of small intestinal Abcb1a mRNA; assay type: in vivo, mouse
# CYP3A4 [5] = test: TaqMan RT-PCR of small intestinal CYP3A4 mRNA; assay type: in vivo, mouse; details: MBP vemurafenib 100 mg/kg b.i.d. four days
# CYP2D6 = details: patients at steady state; cited from earlier work
# DPX2 cells = test: Toxicity in DPX2 cells in the PXR-transactivation assay; assay type: cell-based; details: top two concentrations (41.67 and 125 μM), 48 hours
# [6] = Apparent kinetics of OH-vemurafenib formation in HLM; assay type: in vitro ADME, human
# CYP1A2 = details: patients at steady state; cited from earlier work
# CYP3A4 [7] = biological target: T1, CYP3A4 (Homo sapiens, UniProt P08684); test: biochemical
# Target sequence in this assay (P08684 2-503): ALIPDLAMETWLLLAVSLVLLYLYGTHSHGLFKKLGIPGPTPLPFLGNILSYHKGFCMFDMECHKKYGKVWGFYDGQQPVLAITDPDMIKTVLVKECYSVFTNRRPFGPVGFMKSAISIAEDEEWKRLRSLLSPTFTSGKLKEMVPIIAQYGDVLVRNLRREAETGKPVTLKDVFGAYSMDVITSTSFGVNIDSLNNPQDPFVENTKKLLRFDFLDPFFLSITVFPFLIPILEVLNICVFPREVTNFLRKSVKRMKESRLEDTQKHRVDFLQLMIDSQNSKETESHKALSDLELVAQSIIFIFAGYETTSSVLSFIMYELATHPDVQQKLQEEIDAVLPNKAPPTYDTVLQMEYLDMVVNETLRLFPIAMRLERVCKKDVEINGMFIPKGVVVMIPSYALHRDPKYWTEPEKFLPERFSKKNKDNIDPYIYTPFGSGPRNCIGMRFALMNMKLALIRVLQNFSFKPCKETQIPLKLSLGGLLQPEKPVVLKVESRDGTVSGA
# [8] = crystalline form, physiological pH; cited from earlier work
# [9] = cited from earlier work
# PXR = biological target: T2, PXR (Homo sapiens, UniProt O75469); test: PXR-transactivation assay in DPX2 cells
# T2 sequence (O75469 1-434): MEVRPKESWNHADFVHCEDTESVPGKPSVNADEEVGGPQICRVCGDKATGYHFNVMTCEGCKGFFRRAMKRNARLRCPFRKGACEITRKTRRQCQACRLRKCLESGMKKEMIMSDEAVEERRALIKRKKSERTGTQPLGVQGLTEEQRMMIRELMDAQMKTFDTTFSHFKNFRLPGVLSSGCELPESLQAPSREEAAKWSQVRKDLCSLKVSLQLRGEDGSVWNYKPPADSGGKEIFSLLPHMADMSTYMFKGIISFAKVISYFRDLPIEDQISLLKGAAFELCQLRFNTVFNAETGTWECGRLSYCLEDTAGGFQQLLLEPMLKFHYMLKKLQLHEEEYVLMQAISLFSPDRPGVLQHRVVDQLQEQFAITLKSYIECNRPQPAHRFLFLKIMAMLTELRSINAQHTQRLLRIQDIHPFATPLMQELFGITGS
# [10] = assay type: in vivo; details: huPXR/huCAR/huCYP3A4/3A7, mouse, whole blood, po, 100 mg/kg
# CYP2C9 [11] = biological target: T3, CYP2C9 (Homo sapiens, UniProt P11712); test: in vitro; details: recombinant CYP2C9, pH 7.4
# T3 sequence (P11712 whole entry): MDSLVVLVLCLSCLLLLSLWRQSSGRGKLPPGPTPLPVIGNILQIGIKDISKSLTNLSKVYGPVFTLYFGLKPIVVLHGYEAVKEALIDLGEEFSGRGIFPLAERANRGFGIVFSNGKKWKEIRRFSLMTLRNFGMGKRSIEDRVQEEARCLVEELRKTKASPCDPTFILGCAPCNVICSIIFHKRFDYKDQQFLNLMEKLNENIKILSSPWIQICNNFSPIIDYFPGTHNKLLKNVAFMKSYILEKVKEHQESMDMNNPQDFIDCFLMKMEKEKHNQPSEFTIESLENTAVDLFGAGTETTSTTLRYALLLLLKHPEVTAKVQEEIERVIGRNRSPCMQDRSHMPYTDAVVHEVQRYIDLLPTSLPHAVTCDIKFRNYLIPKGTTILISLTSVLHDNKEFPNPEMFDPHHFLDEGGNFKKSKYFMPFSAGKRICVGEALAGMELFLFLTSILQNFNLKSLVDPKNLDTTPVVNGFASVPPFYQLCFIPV
# CYP2C9 [12] = biological target: T3, CYP2C9; details: 60 μM compound, 400 pmol/mL enzyme, 15 min
# [13] = Vemurafenib pharmacokinetics in huPXR/huCAR mice; assay type: in vivo; details: male, mouse, whole blood, po, 50 mg/kg, AUCall of vemurafenib, RIF pre-treatment, Figure 3A
# COLO205 xenografts = details: cited from earlier work
# CYP3A4 [14] = biological target: T1, CYP3A4
# Target sequence in this assay (P08684 whole entry): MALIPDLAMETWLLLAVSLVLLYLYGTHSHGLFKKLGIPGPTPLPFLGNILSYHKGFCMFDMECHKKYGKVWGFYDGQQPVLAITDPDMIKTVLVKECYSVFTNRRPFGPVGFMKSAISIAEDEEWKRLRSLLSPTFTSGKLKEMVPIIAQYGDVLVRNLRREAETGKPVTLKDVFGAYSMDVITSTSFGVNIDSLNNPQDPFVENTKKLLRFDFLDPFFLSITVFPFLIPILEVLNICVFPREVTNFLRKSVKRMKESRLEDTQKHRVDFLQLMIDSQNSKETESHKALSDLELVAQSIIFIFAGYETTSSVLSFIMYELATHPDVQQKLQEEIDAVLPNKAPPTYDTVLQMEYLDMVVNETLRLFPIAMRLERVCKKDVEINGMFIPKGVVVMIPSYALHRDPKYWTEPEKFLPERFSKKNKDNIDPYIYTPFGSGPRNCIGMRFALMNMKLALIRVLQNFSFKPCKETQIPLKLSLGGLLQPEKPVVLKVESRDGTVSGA
# [15] = read-out: Cmax (mean) in patients at steady state; cited from earlier work
# ABCB1 = details: MDCK-ABCB1 cell line; cited from earlier work
# CYP3A4 [16] = details: patients at steady state; cited from earlier work
# [17] = Apparent kinetics of OH-vemurafenib formation in MLM; assay type: in vitro ADME, mouse; details: Hill equation fit
# Cyp1a = test: Western blot of hepatic microsomal Cyp1a; assay type: in vivo, mouse; details: huPXR/huCAR/huCYP3A4/3A7 mice, MBP vemurafenib 100 mg/kg b.i.d. four days
# [18] = tested on: BRAF^V600E-positive metastatic melanoma; details: single agent, all patients with BRAF V600E-positive metastatic melanoma; cited from earlier work
# [19] = Microsomal stability in pooled human liver microsomes; assay type: in vitro ADME; details: 1 μM, 0.2 mg/mL pooled HLM, presence and absence of NADPH, up to 50 min
# [20] = huPXR/huCAR/huCYP3A4/3A7 mice treated with RIF
# [21] = MBP vemurafenib 100 mg/kg b.i.d. four days
compound,measurement,setting,value
"CCC1(c2ccccc2)C(=O)NC(=O)NC1=O [PB, Phenobarbital]",Hepatic CYP3A4 protein (Western blot),"CYP3A4 [1]; mouse, in vivo",weakly inducing
same,Effect of PB pre-treatment on vemurafenib kinetic parameters,"[2]; PB 80 mg/kg i.p. for three days, huPXR/huCAR/huCYP3A4/3A7 mice",no effect
same,Hepatic Cyp2b / Cyp2b10 protein (Western blot),Cyp2b,induction
"CC(=O)[C@H]1[C@H](C#N)C[C@H]2[C@@H]3CC=C4C[C@@H](O)CC[C@]4(C)[C@H]3CC[C@@]21C [PCN, 5-pregnenolone-3β-ol-20-one-16α-carbonitrile]",Hepatic CYP3A4 protein (Western blot),"CYP3A4 [1]; huCYP3A4/3A7 mice, PCN three days",effectively induced
same,Effect of PCN pre-treatment on vemurafenib clearance,"[3]; PCN 10 mg/kg i.p. three days, Cyp3a null and huCYP3A4/3A7 animals",enhanced clearance equally well
"COc1cc2c(cc1OC)CN(CCc1ccc(NC(=O)c3cccc4c(=O)c5cccc(OC)c5[nH]c34)cc1)CC2 [elacridar, Elacridar hydrochloride]",Inhibition of SLCO1B1,SLCO1B1,known to inhibit
CC(=O)N1CCN(c2ccc(OCC3COC(Cn4ccnc4)(c4ccc(Cl)cc4Cl)O3)cc2)CC1 (stereo not drawn) [ketoconazole],Inhibition of OH-vemurafenib formation,[4],significantly inhibited
CO[C@H]1/C=C/O[C@@]2(C)Oc3c(C)c(O)c4c(O)c(c(/C=N/N5CCN(C)CC5)c(O)c4c3C2=O)NC(=O)/C(C)=C\C=C\[C@H](C)[C@H](O)[C@@H](C)[C@@H](O)[C@@H](C)[C@H](OC(C)=O)[C@@H]1C [rifampicin],Change in mRNA for Abcg2 in the small intestine,Abcg2,no change
same,Change in mRNA for Abcb1b in the small intestine,Abcb1b; [20],no change
same,Increase in mRNA for Abcb1a in the small intestine,Abcb1a; [20],4.7 fold
Nc1ccc(S(=O)(=O)Nc2ccnn2-c2ccccc2)cc1 [sulfaphenazole],Inhibition of OH-vemurafenib formation,[4],partial decrease; also recorded: small but statistically significant decrease
"CCCS(=O)(=O)Nc1ccc(F)c(C(=O)c2c[nH]c3ncc(-c4ccc(Cl)cc4)cc23)c1F [vemurafenib, Vemurafenib]",Change in small intestinal CYP3A4 mRNA expression,CYP3A4 [5],no change
same,Increase in AUC0-last of the CYP2D6 probe dextromethorphan,CYP2D6,47%
same,Toxicity to DPX2 cells,DPX2 cells,highly toxic
same,Vmax for HLM relative to MLM,[6]; HLM vs MLM,approximately 10 fold
same,S50 of OH-vemurafenib formation,"[6]; HLM, Hill equation fit",23.2 ± 0.8 µM
same,Vmax of OH-vemurafenib formation,"[6]; HLM, Hill equation fit",4879 ± 108 peak area/min/mg
same,Increase in AUC0-last of the CYP1A2 probe caffeine,CYP1A2,160%
same,IC50,CYP3A4 [7],14.9 µM
same,Aqueous solubility,[8],0.01 to 10 µg/mL
same,Recovered radioactivity in the parental form,[9]; 0 – 48 hr period,≥ 94%
same,Recovered radioactivity in the parental form,[9]; 48 – 96 hr period,55.5 ± 20.1%
same,Time for 95% of the radioactive dose to be recovered,[9],18 days
same,Total dose recovered within the first 96 hours,[9],68.5%
same,Radioactive dose recovered in faeces,[9]; over 18 days,94%
same,Radioactive dose recovered in urine,[9]; over 18 days,1%
same,EC50,PXR,8.13 µM
same,EMAX of PXR activation,"PXR; DPX2 cells, 48 hours, fold change vs vehicle control",8.54 fold
same,AUC,[10],1140 ± 242 µM·h
same,Cmax,[10],122 ± 19.7 µM
same,Km at 0.15 h,CYP2C9 [11],20.4 ± 1.7 µM
same,Generation of OH-vemurafenib by recombinant CYP,CYP2C9 [12],formed
same,AUC,[13],75 ± 33 µg·h/mL
same,AUC0-24 necessary to effect regression of COLO205 xenografts,COLO205 xenografts,300 µM·h
same,Hepatic CYP3A4 protein (Western blot),CYP3A4 [1]; huPXR/huCAR/huCYP3A4/3A7 mice,weak induction
same,Generation of OH-vemurafenib by recombinant CYP,"CYP3A4 [14]; 60 μM compound, 400 pmol/mL enzyme, 15 min",formed
same,"Affinity for vemurafenib, CYP3A4 relative to CYP2C9",CYP3A4 [14]; S50 CYP3A4 vs CYP2C9,2 fold
same,Cmax,[15],86 ± 32 µM
same,Change in small intestinal Abcb1b mRNA expression,Abcb1b; [21],no change
same,ABCB1 interaction,ABCB1,both an ABCB1 substrate and inhibitor
same,Change in small intestinal Abcb1a mRNA expression,Abcb1a; [21],no change
same,Decrease in AUC0-last of the CYP3A4-specific probe midazolam,CYP3A4 [16],39%
same,Decrease in Cmax and AUCall and increase in CL in huCYP3A4/3A7 PCN group relative to Cyp3aKO/Cyp3a13+/+ PCN group,[3]; vemurafenib 50 mg/kg oral after PCN for three days,not statistically significant
same,S50 of OH-vemurafenib formation,[17],23.8 ± 4.9 µM
same,Vmax of OH-vemurafenib formation,[17],467 ± 54 peak area/min/mg
same,Hepatic Cyp1a protein (Western blot),Cyp1a,moderate induction
same,Objective tumour response,[18],48%
same,AUC,"[2]; male, huPXR/huCAR/huCYP3A4/3A7, mouse, whole blood, po, 50 mg/kg, RIF alone, Figure 5A",90 ± 13 µg·h/mL
same,AUC,"[2]; male, huPXR/huCAR/huCYP3A4/3A7, mouse, whole blood, po, 50 mg/kg, huPXR/huCAR/huCYP3A4/3A7 mice, RIF pre-treatment, Figure 3A",121 ± 18 µg·h/mL
same,AUC,"[2]; male, huPXR/huCAR/huCYP3A4/3A7, mouse, whole blood, po, 50 mg/kg, huPXR/huCAR/huCYP3A4/3A7 mice, vehicle pre-treatment, Figure 3A",432 ± 169 µg·h/mL
same,AUC,"[2]; male, huPXR/huCAR/huCYP3A4/3A7, mouse, whole blood, po, 50 mg/kg, vehicle (CO) alone, Figure 5A",391 ± 112 µg·h/mL
same,AUC,"[2]; male, huPXR/huCAR/huCYP3A4/3A7, mouse, whole blood, po, 50 mg/kg, vehicle (CO) then elacridar, Figure 5A",684 ± 85 µg·h/mL
same,Cmax,"[2]; male, huPXR/huCAR/huCYP3A4/3A7, mouse, whole blood, po, 50 mg/kg, Cmax of vemurafenib, vehicle (CO) then elacridar, Figure 5A",37800 ± 3500 ng/mL
same,Hepatic Cyp2b / Cyp2b10 protein (Western blot),Cyp2b,weak induction
same,Metabolic stability,[19],highly stable
monohydroxy-vemurafenib [OH-vemurafenib],OH-vemurafenib as share of the total dose,[9]; 48 – 96 hr samples,3.4%
same,OH-vemurafenib share of recovered radioactivity,[9]; 48 – 96 hr samples,13.7%
